Values quoted from earlier work, collected in patent US10842883B2, “Aqueous oral solutions of steroid hormones and hydroxypropyl-β-cyclodextrin with optimised bioavailability” (ALTERGON S.A., priority 2012, dated 2020).

Details: Gould et al., Food Chem. Toxicol. 43 (2005)

For `CC(O)COC[C@H]1O[C@@H]2O[C@H]3[C@H](O)[C@@H](O)[C@@H](O[C@H]4[C@H](O)[C@@H](O)[C@@H](O[C@H]5[C@H](O)[C@@H](O)[C@@H](O[C@H]6[C@H](O)[C@@H](O)[C@@H](O[C@H]7[C@H](O)[C@@H](O)[C@@H](O[C@H]8[C@H](O)[C@@H](O)[C@@H](O[C@H]1[C@H](O)[C@H]2O)O[C@@H]8COCC(C)O)O[C@@H]7COCC(C)O)O[C@@H]6COCC(C)O)O[C@@H]5COCC(C)O)O[C@@H]4COCC(C)O)O[C@@H]3COCC(C)O` (stereo partly drawn) [hydroxypropyl-β-cyclodextrin], the “fraction absorbed after oral administration” value is listed as “about 5%”.
